Source: patent publication US10723711B2, “1,1,1-trifluoro-3-hydroxypropan-2-yl carbamate derivatives and 1,1,1-trifluoro-4-hydroxybutan-2-yl carbamate derivatives as MAGL inhibitors” (PFIZER INC., priority 2015, dated 2020)
Read-outs that look alike come from different tables or passages of the source.

Legend:
Assay type in all cases: biochemical
human recombinant FAAH = molecular target: T1, human recombinant FAAH (Homo sapiens, UniProt O00519); assay: FAAH inhibition enzymatic assay, fluorescent substrate Arachidonoyl-AMC, 30 minute incubation; conditions: T = 30 min (30 minute incubation); geometric mean of 2-4 determinations unless otherwise indicated
T1 construct: purchased Cayman 10010183
T1 sequence (O00519 1-579): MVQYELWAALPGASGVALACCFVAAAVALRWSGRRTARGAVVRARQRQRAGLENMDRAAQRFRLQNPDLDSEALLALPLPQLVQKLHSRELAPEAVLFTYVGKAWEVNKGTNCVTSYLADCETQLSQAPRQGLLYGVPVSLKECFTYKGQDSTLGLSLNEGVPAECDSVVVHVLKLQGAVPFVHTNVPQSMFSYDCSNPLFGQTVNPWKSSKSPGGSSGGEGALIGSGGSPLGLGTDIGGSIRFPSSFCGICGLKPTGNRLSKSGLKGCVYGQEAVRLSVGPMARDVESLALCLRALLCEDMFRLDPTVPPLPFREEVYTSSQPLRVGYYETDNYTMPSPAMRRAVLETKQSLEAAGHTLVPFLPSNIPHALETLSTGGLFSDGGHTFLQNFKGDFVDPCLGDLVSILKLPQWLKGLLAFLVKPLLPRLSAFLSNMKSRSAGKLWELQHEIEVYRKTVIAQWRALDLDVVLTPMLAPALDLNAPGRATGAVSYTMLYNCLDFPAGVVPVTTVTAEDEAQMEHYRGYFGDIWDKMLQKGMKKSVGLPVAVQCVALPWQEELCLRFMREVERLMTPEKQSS

[1] = molecular target: T2, human recombinant Monoacylglycerol Lipase (Homo sapiens, UniProt Q99685); assay: MAGL inactivation, enzyme progress curves, kinact/KI; conditions: from enzyme progress curves, T = 0 min protocol; geometric mean of 2-4 determinations unless otherwise indicated
T2 sequence (Q99685 1-303): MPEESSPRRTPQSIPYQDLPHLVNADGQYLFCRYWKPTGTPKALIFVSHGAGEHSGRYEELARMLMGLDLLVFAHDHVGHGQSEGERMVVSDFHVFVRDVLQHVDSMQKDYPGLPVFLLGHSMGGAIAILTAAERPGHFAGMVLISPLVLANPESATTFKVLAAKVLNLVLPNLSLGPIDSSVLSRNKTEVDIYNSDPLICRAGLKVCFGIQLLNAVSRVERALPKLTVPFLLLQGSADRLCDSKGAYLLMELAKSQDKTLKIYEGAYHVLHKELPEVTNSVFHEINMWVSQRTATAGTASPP
In short: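 Human recombinant MAGL ([…]) with compound, 7-HCA substrate (final 5 μM) added immediately (T=0 min), in pH 7.4 HEPES buffer with 0.1% Triton X-100 and 25% glycerin. Fluorescence (Ex/Em 340/465) was read every minute over 60 min, giving progress curves at decreasing compound concentrations (final 3 μM to 0.03 nM).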

[2] = molecular target: T2, human recombinant Monoacylglycerol Lipase; assay: MAGL inhibition enzymatic assay, fluorogenic substrate 7-HCA, IC50 at T=0 min or after 30 minute incubation (T=30 min); conditions: geometric mean of 2-4 determinations unless otherwise indicated
Procedure: An equal volume of 7-HCA in assay buffer with 10% DMSO was added either immediately (T=0 min) or after a 30 minute incubation (T=30 min) to initiate the reaction. […] After these dilutions, the final concentration of the test compound ranged from 3 μM to 0.03 nM. […] IC50 values were generated based on a four parameter fit model using ABASE software from IDBS.

[3] = T = 0 min (substrate added immediately), read-out: MAGL (T = 0 min) IC50
[4] = T = 30 min (30 minute incubation), read-out: MAGL (T = 30 min) IC50

IC50 (human recombinant FAAH)	MAGL kinact/KI [1]	IC50 [2, 3]	IC50 [2, 4]	Structure (SMILES)
> 30000 nM	16586 1/s per M	56 nM	6 nM	C#Cc1ccc(S(=O)(=O)N2CCOC3(CCN(C(=O)O[C@H](CO)C(F)(F)F)CC3)C2)cc1 [Example 68]
18300 nM	1336 1/s per M	215 nM	26 nM	Cc1ccc(CC2COC3(CCN(C(=O)O[C@H](CO)C(F)(F)F)CC3)C2)nc1 (mixture of isomers) [Example 102, (2R)-1,1,1-Trifluoro-3-hydroxypropan-2-yl 3-[(5-methylpyridin-2-yl)methyl]-1-oxa-8-azaspiro[4.5]decane-8-carboxylate]
> 30000 nM	1516 1/s per M	166 nM	21 nM	O=C(O[C@H](CO)C(F)(F)F)N1CCC2(CC1)CC(c1ccc(F)nc1)CO2 (mixture of isomers) [Example 120]
